The numbers were not newly measured in patent US8431724B2, “Iejimalid analoga and uses thereof” (Studiengesellschaft Kohle mbH, priority 2007, dated 2013), which cites them from elsewhere.

The test system of series [1] is P388 leukemia. To be noted: Kobayashi's report.
For series [2], the system named is panel of 60 standard human cancer cell lines. To be noted: NCI dataset 2005.

Take `CO[C@@H]1/C=C(C)/C=C/[C@@H](C)/C=C/C(=O)O[C@H](/C(C)=C/C=C(\C)CNC(=O)[C@H](COS(=O)(=O)[O-])NC=O)[C@@H](C)/C=C/C=C/[C@@H](OC)CC/C=C(C)\C=C\C1.[Na+]` [compound 3, Iejimalide C]: the “in vivo activity against P388 leukemia” value in series [1] is recorded as “potent in vivo activity”.

`CO[C@@H]1/C=C(C)/C=C/[C@@H](C)/C=C(\C)C(=O)O[C@H](/C(C)=C/C=C(\C)CNC(=O)[C@H](COS(=O)(=O)[O-])NC=O)[C@@H](C)/C=C/C=C/[C@@H](OC)CC/C=C(C)\C=C\C1.[Na+]` [compound 4, Iejimalide D]: the “in vivo activity against P388 leukemia” value in series [1] is “potent in vivo activity”.

For Iejimalide A, in series [2], the GI50 entry is listed as “low nanomolar range” and the TGI result is reported as “low nanomolar range”.
